pIC50: −log10 of the molar value.
Legend:
human NK-3 receptor = target: T1, human NK-3 receptor (Homo sapiens, UniProt P29371); assay: Antagonistic activity on human NK-3 receptor, FLIPR calcium assay in stably transfected human NK-3R/HEK293 cells; assay type: cell-based
T1 construct: expressed in transfected cells; host or cells: HEK293 (stably transfected human NK-3R/HEK293)
T1 sequence (P29371 1-465): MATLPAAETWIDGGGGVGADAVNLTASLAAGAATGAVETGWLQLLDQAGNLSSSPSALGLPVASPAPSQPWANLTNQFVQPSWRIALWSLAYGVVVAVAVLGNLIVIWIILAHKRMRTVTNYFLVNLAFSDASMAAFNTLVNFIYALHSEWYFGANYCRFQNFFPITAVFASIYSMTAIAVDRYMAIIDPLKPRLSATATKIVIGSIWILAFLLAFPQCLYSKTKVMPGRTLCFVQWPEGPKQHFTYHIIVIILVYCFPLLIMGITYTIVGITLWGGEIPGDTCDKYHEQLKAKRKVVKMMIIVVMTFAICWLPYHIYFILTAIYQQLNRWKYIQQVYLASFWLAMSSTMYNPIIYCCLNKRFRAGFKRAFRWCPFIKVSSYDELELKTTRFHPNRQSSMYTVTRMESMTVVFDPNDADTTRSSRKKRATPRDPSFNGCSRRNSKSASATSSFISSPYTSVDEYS

[1] = DVS hygroscopicity test at 25° C.; assay type: physicochemical
Method: • DVS curve is collected on DVS Intrinsic of SMS (Surface Measurement Systems) Relative humidity at 25° C. is calibrated based on deliquescent points of LiCl, Mg(NO3)2, and KCl. • Temperature: 25° C.; • Sample amount: 10-20 mg; • Protecting gas and flow rate: N2, 200 mL/min; • dm/dt: 0.002%/min; • Minimum dm/dt equilibration time: 10 min; • Maximum equilibration time: 180 min; • RH range: 0% RH-95% RH-0% RH; • RH gradient: 10% RH (0% RH-90% RH & 90% RH-0% RH); 5% RH (90% RH-95% RH & 95% RH-90% RH)

[2] = Solid-state stability evaluation (open storage, XRPD and HPLC); assay type: physicochemical
Method: Waters H-Class ultra performance liquid chromatograph is used to collect solubility and purity data of the items.
An appropriate amount of sample was weighed, kept open at 60° C. for 1 day, as well as kept open at 25° C./60% RH and kept open at 40° C./75% RH for 1 week and 4 weeks respectively. Then, the sample was characterized by XRPD and HPLC to detect changes in the crystal form and chemical purity.

| Compound | NK-3 receptor antagonism (in words) (human NK-3 receptor; conclusion from IC50 data) | pIC50 (human NK-3 receptor; human NK-3R/HEK293 cells, agonist Neurokinin B, FLIPR) | moisture adsorption ([1]; 25° C./80% RH, DVS) | hygroscopicity (in words) ([1]; DVS, 25° C.) | crystal form before and after DVS testing (XRPD) ([1]; XRPD before and after DVS) | HPLC Relative purity % ([2]; 25° C./60% RH, 1 week, open) [%] | HPLC purity Area % ([2]; 25° C./60% RH, 1 week, open) [%] | HPLC Relative purity % ([2]; 25° C./60% RH, 4 weeks, open) [%] | HPLC purity Area % ([2]; 25° C./60% RH, 4 weeks, open) [%] | HPLC Relative purity % ([2]; 40° C./75% RH, 1 week, open) [%] | HPLC purity Area % ([2]; 40° C./75% RH, 1 week, open) [%] | HPLC Relative purity % ([2]; 40° C./75% RH, 4 weeks, open) [%] | HPLC purity Area % ([2]; 40° C./75% RH, 4 weeks, open) [%] | change of purity after storage ([2]; 60° C. 1 day, 25° C./60% RH and 40° C./75% RH, 1 week and 4 weeks, open) | HPLC Relative purity % ([2]; 60° C., 1 day, open) [%] | HPLC purity Area % ([2]; 60° C., 1 day, open) [%] | physicochemical stability (in words) ([2]; all evaluated storage conditions) |
| --- | --- | --- | --- | --- | --- | --- | --- | --- | --- | --- | --- | --- | --- | --- | --- | --- | --- |
| Cc1nsc(-c2nc(N3CCCC3=O)c3n2CCN(C(=O)c2ccc(F)cc2)[C@@H]3C)n1 [Compound represented by formula (I), (R)-1-(7-(4-fluorobenzoyl)-8-methyl-3-(3-methyl-1,2,4-thiadiazol-5-yl)-5,6,7,8-tetrahydroimidazo[1,5-a]pyrazin-1-yl)pyrrolidin-2-one] | potent NK-3 receptor antagonist | 7.92 | – | – | – | – | – | – | – | – | – | – | – | – | – | – | – |
| Cc1nsc(-c2nc(N3CCCC3=O)c3n2CCN(C(=O)c2ccc(F)cc2)[C@@H]3C)n1 [Crystal form A of free base, (R)-1-(7-(4-fluorobenzoyl)-8-methyl-3-(3-methyl-1,2,4-thiadiazol-5-yl)-5,6,7,8-tetrahydroimidazo[1,5-a]pyrazin-1-yl)pyrrolidin-2-one] | – | – | about 0.15% | almost non-hygroscopic | did not change in the crystal form | 99.9 | 99.48 | 99.9 | 99.45 | 99.9 | 99.49 | 99.9 | 99.49 | < 0.2 %, area % | 99.9 | 99.49 | good physicochemical stability |

— patent US20260166150A1, “CRYSTAL FORM OF NK3R ANTAGONIST, AND PREPARATION METHOD THEREFOR AND USE THEREOF” (CHANGCHUN GENESCIENCE PHARMACEUTICAL CO., LTD., priority 2022, published 2026)
